Results on 18 compounds are retold here after the RepoRT retention time repository (doi:10.1021/acs.analchem.1c00972).

Common to all, as to settings: stereoisomer not certain
Series [1] can be described thus: RP, Waters ACQUITY UPLC BEH C18, 100 × 1 mm, 1.7 µm, 50 °C, 0.3 mL/min, estimated dead time 0.17 min; A: water + 0.1% formic acid + 20 mM ammonium formate; B: methanol + 0.1% formic acid + 20 mM ammonium formate; gradient (min/%B) 0/0 15/100 21/100 22/0 30/0.
Series [2] can be described thus: RP, Phenomenex Synergi Polar-RP, 100 × 3 mm, 2.5 µm, 40 °C, 0.4 mL/min, estimated dead time 1.1 min; A: water + 1 mM ammonium fluoride; B: methanol + 1 mM ammonium fluoride; C: acetonitrile; D: 50% isopropanol + 50% acetone; gradient (min/%B/%C/%D) 0/5/0/0 2/5/0/0 8/95/0/0 12/80/15/0 19/25/70/0 19.5/0/25/70 21.5/0/25/70 22.5/0/25/0 23/5/0/0.
A short description of series [3]: RP, Waters ACQUITY UPLC BEH C18, 100 × 1 mm, 1.7 µm, 50 °C, 0.3 mL/min, estimated dead time 0.17 min; A: water + 10 mM ammonium bicarbonate; B: 10% water + 90% methanol + 10 mM ammonium bicarbonate; gradient (min/%B) 0/0 15/100 21/100 22/0 30/0.

Each structure is given as a SMILES string. Structures can show the parent of a compound that is named as a salt.

On to `CC(C)(c1cc(Br)c(O)c(Br)c1)c1cc(Br)c(O)c(Br)c1` [Tetrabromobisphenol A], for which the LC retention time is 16.6 min in series [1], 11.7 min in series [2] and 14.6 min in series [3].
Regarding `CCCCCCCCCCCCc1ccccc1S(=O)(=O)O` [Dodecylbenzenesulfonic acid], the figures for the LC retention time in series [1], in series [2] and in series [3] were 17.2 min, 10.1 min and 17.5 min, respectively.
In the case of `O=c1[nH]c2ccccc2s1` [2-hydroxybenzothiazole], the values for the LC retention time in series [1], in series [2] and in series [3] were 10.6 min, 9.61 min and 10.5 min, respectively.
The matching figures for `CCC(C)c1cc([N+](=O)[O-])cc([N+](=O)[O-])c1O` (centres undefined) [Dinoseb]: 15.5 min, 10 min and 12.4 min.
As to `O=C(O)CCC(=O)c1ccc(F)cc1` [4-Fluorobenzoylpropionic acid], the LC retention time in series [1] was 10.5 min; in series [2] it was 8.54 min; in series [3], 7.83 min.
The matching figures for `N#Cc1nn(-c2c(Cl)cc(C(F)(F)F)cc2Cl)c(N)c1C(F)(F)F` [Fipronil desulfinyl]: 15.1 min, 10.9 min and 15.4 min.
The matching figures for `O=C(O)C(F)(F)C(F)(F)C(F)(F)C(F)(F)C(F)(F)C(F)(F)C(F)(F)C(F)(F)C(F)(F)C(F)(F)C(F)(F)C(F)(F)C(F)(F)F` [Perfluorotetradecanoic acid]: 17.7 min, 9.93 min and 17.7 min.
Take `NS(=O)(=O)C(F)(F)C(F)(F)C(F)(F)C(F)(F)C(F)(F)C(F)(F)C(F)(F)C(F)(F)F` [Perfluorooctanesulfonamide]: the values for the LC retention time in series [1], in series [2] and in series [3] were 16.5 min, 10.6 min and 15.7 min, respectively.
The like results for `Oc1c(Br)cc(Cl)cc1Cc1cc(Cl)cc(Br)c1O` [Bromochlorophen] were, in that order, 17.3 min, 11.2 min and 16.4 min.
`COC(=O)c1ccc(O)cc1` [Methylparaben]: the LC retention time in series [1] was 9.98 min; in series [2], 9.32 min; in series [3], 9.08 min.
In the case of `CCCCCCCCCCCCCCOS(=O)(=O)O` [Tetradecylsulfate], the results for the LC retention time in series [1], in series [2] and in series [3] were 17.2 min, 9.97 min and 17.4 min, respectively.
On to `Oc1ccc(Cl)cc1Cc1cc(Cl)ccc1O` [Dichlorophen], for which the LC retention time was 15.2 min in series [1], 10.9 min in series [2] and 15.1 min in series [3].
The matching figures for `CCCCCCCCCCCCOS(=O)(=O)O` [Dodecyl sulfate]: 16.2 min, 9.67 min and 16.4 min.
The matching figures for `CC(C)C(=O)Nc1ccc([N+](=O)[O-])c(C(F)(F)F)c1` [Flutamide]: 14.1 min, 10.7 min and 14.3 min.
The matching figures for `N#Cc1nn(-c2c(Cl)cc(C(F)(F)F)cc2Cl)c(N)c1S(=O)(=O)C(F)(F)F` [Fipronil sulfone]: 15.7 min, 11.1 min and 16 min.
For `CC(=O)Nc1ccc(O)c(C(=O)O)c1` [N-Acetyl mesalazine], the results for the LC retention time in series [1], in series [2] and in series [3] were 6.82 min, 2.92 min and 4.58 min, respectively.
In the case of `CC(Oc1ccc(Cl)cc1Cl)C(=O)O` (centres undefined) [Dichlorprop], the values for the LC retention time in series [1], in series [2] and in series [3] were 14 min, 8.48 min and 11.8 min, respectively.
The like results for `O=C(O)c1cc(Oc2ccc(Cl)cc2Cl)ccc1[N+](=O)[O-]` [Bifenox free acid] were, in that order, 14.3 min, 9.15 min and 13.2 min.
